Test results reported in ChEMBL document CHEMBL5303573, “Mapping human microbiome drug metabolism by gut bacteria and their genes” (Nature, 2019).

Assay: The drug is tested on Odoribacter splanchnicus strain: fecal isolate for biotransformation. The drug concentrations were measured before and after a 12-h incubation by liquid-chromatography-coupled mass spectrometry (LC–MS)
Settings: 2 µM

SMILES | Bacterial Biotransformation
COc1cc(C(=O)NCc2ccc(OCCN(C)C)cc2)cc(OC)c1OC [TRIMETHOBENZAMIDE] | Compound NOT metabolized
CCCCCNC(=N)N/N=C/c1c[nH]c2ccc(OC)cc12.O=C(O)/C=C\C(=O)O [TEGASEROD MALEATE] | Compound NOT metabolized

Assay: The drug is tested on Ruminococcus lactaris strain: ATCC29176 for biotransformation. The drug concentrations were measured before and after a 12-h incubation by liquid-chromatography-coupled mass spectrometry (LC–MS)
Settings: 2 µM

SMILES | Bacterial Biotransformation
COc1cc(C(=O)NCc2ccc(OCCN(C)C)cc2)cc(OC)c1OC [TRIMETHOBENZAMIDE] | Compound NOT metabolized
CCCCCNC(=N)N/N=C/c1c[nH]c2ccc(OC)cc12.O=C(O)/C=C\C(=O)O [TEGASEROD MALEATE] | Compound NOT metabolized

Assay: The drug is tested on Bacteroides xylanisolvens strain: DSM18836 for biotransformation. The drug concentrations were measured before and after a 12-h incubation by liquid-chromatography-coupled mass spectrometry (LC–MS)
Settings: 2 µM

SMILES | Bacterial Biotransformation
COc1cc(C(=O)NCc2ccc(OCCN(C)C)cc2)cc(OC)c1OC [TRIMETHOBENZAMIDE] | Compound NOT metabolized
CCCCCNC(=N)N/N=C/c1c[nH]c2ccc(OC)cc12.O=C(O)/C=C\C(=O)O [TEGASEROD MALEATE] | Compound NOT metabolized

Settings: roseburia intestinalis, 12 h, 2 µM
Description: The drug is tested on Roseburia intestinalis strain: L1-82 for biotransformation. The drug concentrations were measured before and after a 12-h incubation by liquid-chromatography-coupled mass spectrometry (LC–MS)

SMILES | Bacterial Biotransformation
COc1cc(C(=O)NCc2ccc(OCCN(C)C)cc2)cc(OC)c1OC [TRIMETHOBENZAMIDE] | Compound NOT metabolized
CCCCCNC(=N)N/N=C/c1c[nH]c2ccc(OC)cc12.O=C(O)/C=C\C(=O)O [TEGASEROD MALEATE] | Compound NOT metabolized

Assay: The drug is tested on Ruminococcus torques strain: ATCC27756 for biotransformation. The drug concentrations were measured before and after a 12-h incubation by liquid-chromatography-coupled mass spectrometry (LC–MS)
Assay type: ADME
Parameters: dose 2 uM, timepoint 0 vs 12 hours
Settings: 2 µM

SMILES | Bacterial Biotransformation
COc1cc(C(=O)NCc2ccc(OCCN(C)C)cc2)cc(OC)c1OC [TRIMETHOBENZAMIDE] | Compound NOT metabolized
CCCCCNC(=N)N/N=C/c1c[nH]c2ccc(OC)cc12.O=C(O)/C=C\C(=O)O [TEGASEROD MALEATE] | Compound NOT metabolized

Assay: The drug is tested on Coprococcus comes strain: ATCC27758 for biotransformation. The drug concentrations were measured before and after a 12-h incubation by liquid-chromatography-coupled mass spectrometry (LC–MS)
Assay type: ADME
Parameters: dose 2 uM, timepoint 0 vs 12 hours
Settings: 2 µM

SMILES | Bacterial Biotransformation
COc1cc(C(=O)NCc2ccc(OCCN(C)C)cc2)cc(OC)c1OC [TRIMETHOBENZAMIDE] | Compound NOT metabolized
CCCCCNC(=N)N/N=C/c1c[nH]c2ccc(OC)cc12.O=C(O)/C=C\C(=O)O [TEGASEROD MALEATE] | Compound NOT metabolized

Assay: The drug is tested on Eubacterium ventriosum strain: ATCC27560 for biotransformation. The drug concentrations were measured before and after a 12-h incubation by liquid-chromatography-coupled mass spectrometry (LC–MS)
Assay type: ADME
Parameters: dose 2 uM, timepoint 0 vs 12 hours
Settings: 2 µM

SMILES | Bacterial Biotransformation
COc1cc(C(=O)NCc2ccc(OCCN(C)C)cc2)cc(OC)c1OC [TRIMETHOBENZAMIDE] | Compound NOT metabolized
CCCCCNC(=N)N/N=C/c1c[nH]c2ccc(OC)cc12.O=C(O)/C=C\C(=O)O [TEGASEROD MALEATE] | Compound NOT metabolized

Assay: The drug is tested on Dorea formicigenerans strain: ATCC27755 for biotransformation. The drug concentrations were measured before and after a 12-h incubation by liquid-chromatography-coupled mass spectrometry (LC–MS)
Settings: 2 µM

SMILES | Bacterial Biotransformation
COc1cc(C(=O)NCc2ccc(OCCN(C)C)cc2)cc(OC)c1OC [TRIMETHOBENZAMIDE] | Compound NOT metabolized
CCCCCNC(=N)N/N=C/c1c[nH]c2ccc(OC)cc12.O=C(O)/C=C\C(=O)O [TEGASEROD MALEATE] | Compound NOT metabolized

Assay: The drug is tested on Clostridium sporogenes strain: ATCC15579 for biotransformation. The drug concentrations were measured before and after a 12-h incubation by liquid-chromatography-coupled mass spectrometry (LC–MS)
Settings: 2 µM

SMILES | Bacterial Biotransformation
COc1cc(C(=O)NCc2ccc(OCCN(C)C)cc2)cc(OC)c1OC [TRIMETHOBENZAMIDE] | Compound NOT metabolized
CCCCCNC(=N)N/N=C/c1c[nH]c2ccc(OC)cc12.O=C(O)/C=C\C(=O)O [TEGASEROD MALEATE] | Compound NOT metabolized

Assay: The drug is tested on Enterococcus faecalis strain: V583 for biotransformation. The drug concentrations were measured before and after a 12-h incubation by liquid-chromatography-coupled mass spectrometry (LC–MS)
Settings: 2 µM

SMILES | Bacterial Biotransformation
COc1cc(C(=O)NCc2ccc(OCCN(C)C)cc2)cc(OC)c1OC [TRIMETHOBENZAMIDE] | Compound NOT metabolized
CCCCCNC(=N)N/N=C/c1c[nH]c2ccc(OC)cc12.O=C(O)/C=C\C(=O)O [TEGASEROD MALEATE] | Compound NOT metabolized

Assay: The drug is tested on Bacteroides fragilis strain: HMW615 for biotransformation. The drug concentrations were measured before and after a 12-h incubation by liquid-chromatography-coupled mass spectrometry (LC–MS)
Settings: 2 µM

SMILES | Bacterial Biotransformation
COc1cc(C(=O)NCc2ccc(OCCN(C)C)cc2)cc(OC)c1OC [TRIMETHOBENZAMIDE] | Compound NOT metabolized
CCCCCNC(=N)N/N=C/c1c[nH]c2ccc(OC)cc12.O=C(O)/C=C\C(=O)O [TEGASEROD MALEATE] | Compound NOT metabolized

Settings: segatella copri, 12 h, 2 µM
Description: The drug is tested on Prevotella copri strain: DSM18205 for biotransformation. The drug concentrations were measured before and after a 12-h incubation by liquid-chromatography-coupled mass spectrometry (LC–MS)

SMILES | Bacterial Biotransformation
COc1cc(C(=O)NCc2ccc(OCCN(C)C)cc2)cc(OC)c1OC [TRIMETHOBENZAMIDE] | Compound NOT metabolized
CCCCCNC(=N)N/N=C/c1c[nH]c2ccc(OC)cc12.O=C(O)/C=C\C(=O)O [TEGASEROD MALEATE] | Compound NOT metabolized

Settings: akkermansia muciniphila, 12 h, 2 µM
Description: The drug is tested on Akkermansia muciniphila strain: ATCC BAA-835 for biotransformation. The drug concentrations were measured before and after a 12-h incubation by liquid-chromatography-coupled mass spectrometry (LC–MS)

SMILES | Bacterial Biotransformation
COc1cc(C(=O)NCc2ccc(OCCN(C)C)cc2)cc(OC)c1OC [TRIMETHOBENZAMIDE] | Compound NOT metabolized
CCCCCNC(=N)N/N=C/c1c[nH]c2ccc(OC)cc12.O=C(O)/C=C\C(=O)O [TEGASEROD MALEATE] | Compound NOT metabolized

Assay: The drug is tested on Alistipes indistinctus strain: DSM22520 for biotransformation. The drug concentrations were measured before and after a 12-h incubation by liquid-chromatography-coupled mass spectrometry (LC–MS)
Settings: 2 µM

SMILES | Bacterial Biotransformation
COc1cc(C(=O)NCc2ccc(OCCN(C)C)cc2)cc(OC)c1OC [TRIMETHOBENZAMIDE] | Compound NOT metabolized
CCCCCNC(=N)N/N=C/c1c[nH]c2ccc(OC)cc12.O=C(O)/C=C\C(=O)O [TEGASEROD MALEATE] | Compound NOT metabolized

Assay: The drug is tested on Bacteroides uniformis strain: ATCC8492 for biotransformation. The drug concentrations were measured before and after a 12-h incubation by liquid-chromatography-coupled mass spectrometry (LC–MS)
Settings: 2 µM

SMILES | Bacterial Biotransformation
COc1cc(C(=O)NCc2ccc(OCCN(C)C)cc2)cc(OC)c1OC [TRIMETHOBENZAMIDE] | Compound NOT metabolized
CCCCCNC(=N)N/N=C/c1c[nH]c2ccc(OC)cc12.O=C(O)/C=C\C(=O)O [TEGASEROD MALEATE] | Compound NOT metabolized

Assay: The drug is tested on Bacteroides vulgatus strain: ATCC8482 for biotransformation. The drug concentrations were measured before and after a 12-h incubation by liquid-chromatography-coupled mass spectrometry (LC–MS)
Settings: phocaeicola vulgatus, 2 µM

SMILES | Bacterial Biotransformation
COc1cc(C(=O)NCc2ccc(OCCN(C)C)cc2)cc(OC)c1OC [TRIMETHOBENZAMIDE] | Compound NOT metabolized
CCCCCNC(=N)N/N=C/c1c[nH]c2ccc(OC)cc12.O=C(O)/C=C\C(=O)O [TEGASEROD MALEATE] | Compound NOT metabolized

Settings: anaerostipes sp., 12 h, 2 µM
Description: The drug is tested on Anaerostipes sp. strain: fecal isolate for biotransformation. The drug concentrations were measured before and after a 12-h incubation by liquid-chromatography-coupled mass spectrometry (LC–MS)

SMILES | Bacterial Biotransformation
COc1cc(C(=O)NCc2ccc(OCCN(C)C)cc2)cc(OC)c1OC [TRIMETHOBENZAMIDE] | Compound NOT metabolized
CCCCCNC(=N)N/N=C/c1c[nH]c2ccc(OC)cc12.O=C(O)/C=C\C(=O)O [TEGASEROD MALEATE] | Compound NOT metabolized

Assay: The drug is tested on Blautia hansenii strain: DSM20583 for biotransformation. The drug concentrations were measured before and after a 12-h incubation by liquid-chromatography-coupled mass spectrometry (LC–MS)
Settings: 2 µM

SMILES | Bacterial Biotransformation
COc1cc(C(=O)NCc2ccc(OCCN(C)C)cc2)cc(OC)c1OC [TRIMETHOBENZAMIDE] | Compound NOT metabolized
CCCCCNC(=N)N/N=C/c1c[nH]c2ccc(OC)cc12.O=C(O)/C=C\C(=O)O [TEGASEROD MALEATE] | Compound NOT metabolized
